In US4647572A, “Iodoallyl and iodopropargyl substituted tetrazoles and anti-microbial compositions thereof” (Meiji Seika Kaisha, Ltd., priority 1982, dated 1987):
Values after ≈ are worked out from the molar mass of the structure shown.

Key:
Format in all cases: cell-based
[1] = test system: Trichophyton interdigitale; test: Antifungal Activity MIC (in medicinal field); details: read-out: Minimal Inhibitory Concentration (MIC)
[2] = test system: Aspergillus fumigatus Saito; test: Antifungal Activity MIC (in medicinal field); details: read-out: Minimal Inhibitory Concentration (MIC)
[3] = test system: Cryptococcus neoformans Cr-1; test: Antifungal Activity MIC (in medicinal field); details: CR1, read-out: Minimal Inhibitory Concentration (MIC)
Candida albicans GA-24 = test: Antifungal Activity MIC (in medicinal field); details: GA24, read-out: Minimal Inhibitory Concentration (MIC)
[4] = test system: Trichophyton metagrophytes 530324; test: Antifungal Activity MIC (in medicinal field); details: read-out: Minimal Inhibitory Concentration (MIC)
[5] = test system: Serratia marcescens MB-3848; test: Minimal Inhibitory Concentration Method; details: MB3848; Serratia marcescens MB-3848; read-out: Minimal Inhibitory Conc.
Salmonella typhi 0-901-W = test: Minimal Inhibitory Concentration Method; details: Salmonella enterica, read-out: Minimal Inhibitory Conc.
[6] = test system: Pseudomonas cepacia M-0527; test: Minimal Inhibitory Concentration Method; details: Burkholderia cepacia, M0527, read-out: Minimal Inhibitory Conc.
[7] = test system: Klebsiella pneumoniae PCI 602; test: Minimal Inhibitory Concentration Method; details: PCI602, read-out: Minimal Inhibitory Conc.
Proteus vulgaris OX-19 = test: Minimal Inhibitory Concentration Method; details: Proteus vulgaris, OX19, read-out: Minimal Inhibitory Conc.
[8] = test system: Staphylococcus aureus 209P JC-1; test: Minimal Inhibitory Concentration Method; details: Staphylococcus aureus, 209P, read-out: Minimal Inhibitory Conc.
[9] = test system: Shigella sonnei EW 33 type I; test: Minimal Inhibitory Concentration Method; details: EW33TYPEI, read-out: Minimal Inhibitory Conc.
Text: (Minimal Inhibitory Concentration Method)
Minimal Inhibitory Conc. (mcg/ml)

[10] = test system: Escherichia coli NIHJ JC-2; test: Minimal Inhibitory Concentration Method; details: NIHJJC2, read-out: Minimal Inhibitory Conc.
[11] = test system: Bacillus anthracis No. 119; test: microbe, parasite or virus in culture; details: NO.119, read-out: Minimal Inhibitory Conc.
[12] = test system: Pseudomonas maltiophilia M-0627; test: Minimal Inhibitory Concentration Method; details: M0627, read-out: Minimal Inhibitory Conc.
[13] = test system: Escherichia coli NIHJ JC-2; test: Antibacterial activity (Paper-disc method); details: read-out: Inhibition zone diameter; for zone of inhibition at 250 µg/mL: NIHJJC2, 250 γ/ml; for zone of inhibition at 500 µg/mL: NIHJJC2, 500 γ/ml
Sarcina lutea = test: Antibacterial activity (Paper-disc method); details: Micrococcus luteus, read-out: Inhibition zone diameter; for zone of inhibition at 250 µg/mL: 250 γ/ml; for zone of inhibition at 500 µg/mL: 500 γ/ml
[14] = test system: Staphylococcus aureus 209P; test: Antibacterial activity (Paper-disc method); details: read-out: Inhibition zone diameter; for zone of inhibition at 250 µg/mL: 250 γ/ml; for zone of inhibition at 500 µg/mL: 500 γ/ml
Bacillus subtilis = test: Antibacterial activity (Paper-disc method); details: read-out: Inhibition zone diameter; for zone of inhibition at 250 µg/mL: 250 γ/ml; for zone of inhibition at 500 µg/mL: 500 γ/ml

Q: What does the source list for `Cc1nnn(CC#CI)n1` [Compound No. 1, 2-(1'-iodopropyn-3'-yl)-5-methyltetrazole]?
A: MIC [1]: 6.25 µg/mL (≈ 25.2 µM); MIC [2]: 6.25 µg/mL (≈ 25.2 µM); MIC [3]: 3.12 µg/mL (≈ 12.6 µM); MIC (Candida albicans GA-24): 6.25 µg/mL (≈ 25.2 µM); MIC [4]: 3.12 µg/mL (≈ 12.6 µM)

Q: How did the MIC [1] turn out when `Cc1nnnn1CC#CI` [Compound No. 2, 1-(1'-Iodopropyn-3'-yl)-5-methyltetrazole] was run?
A: 0.78 µg/mL (≈ 3.14 µM)

Q: And the MIC [2]?
A: 0.75 µg/mL (≈ 3.02 µM)

Q: What about the MIC [3] of the same molecule?
A: 0.78 µg/mL (≈ 3.14 µM)

Q: And the MIC (Candida albicans GA-24)?
A: 1.56 µg/mL (≈ 6.29 µM)

Q: And the MIC [4]?
A: 0.78 µg/mL (≈ 3.14 µM)

Q: `CCCc1nnn(CC#CI)n1` [Compound No. 5, 2-(1'-iodopropyn-3'-yl)-5-n-propyltetrazole] was tested. Which MIC [5] did it give?
A: 25 µg/mL (≈ 90.6 µM)

Q: What about the MIC (Salmonella typhi 0-901-W) of the same molecule?
A: 25 µg/mL (≈ 90.6 µM)

Q: And the MIC [6]?
A: 100 µg/mL (≈ 362 µM)

Q: And the MIC [1]?
A: ≤ 0.05 µg/mL

Q: And the MIC [7]?
A: 100 µg/mL (≈ 362 µM)

Q: And the MIC (Proteus vulgaris OX-19)?
A: 12.5 µg/mL (≈ 45.3 µM)

Q: What about the MIC [2] of the same molecule?
A: ≤ 0.05 µg/mL

Q: And the MIC [8]?
A: 12.5 µg/mL (≈ 45.3 µM)

Q: What about the MIC [3] of the same molecule?
A: 0.78 µg/mL (≈ 2.83 µM)

Q: What about the MIC [9] of the same molecule?
A: 6.25 µg/mL (≈ 22.6 µM)

Q: What about the MIC (Candida albicans GA-24) of the same molecule?
A: 0.78 µg/mL (≈ 2.83 µM)

Q: And the MIC [10]?
A: 50 µg/mL (≈ 181 µM)

Q: And the MIC [11]?
A: 12.5 µg/mL (≈ 45.3 µM)

Q: And the MIC [4]?
A: 0.05 µg/mL (≈ 0.181 µM)

Q: What about the MIC [12] of the same molecule?
A: 25 µg/mL (≈ 90.6 µM)

Q: For `CC(C)c1nnn(CC#CI)n1` [Compound No. 7, 2-(1'-iodopropyn-3'-yl)-5-isopropyltetrazole], which MIC [5] is on record?
A: 25 µg/mL (≈ 90.6 µM)

Q: What about the MIC (Salmonella typhi 0-901-W) of the same molecule?
A: 25 µg/mL (≈ 90.6 µM)

Q: And the MIC [6]?
A: > 100 µg/mL

Q: What about the MIC [1] of the same molecule?
A: ≤ 0.05 µg/mL

Q: What about the MIC [7] of the same molecule?
A: 100 µg/mL (≈ 362 µM)

Q: And the MIC (Proteus vulgaris OX-19)?
A: 12.5 µg/mL (≈ 45.3 µM)

Q: What about the MIC [2] of the same molecule?
A: ≤ 0.05 µg/mL

Q: What about the MIC [8] of the same molecule?
A: 12.5 µg/mL (≈ 45.3 µM)

Q: What about the MIC [3] of the same molecule?
A: 0.78 µg/mL (≈ 2.83 µM)

Q: What about the MIC [9] of the same molecule?
A: 6.25 µg/mL (≈ 22.6 µM)

Q: And the MIC (Candida albicans GA-24)?
A: ≤ 0.05 µg/mL

Q: And the MIC [10]?
A: 25 µg/mL (≈ 90.6 µM)

Q: And the MIC [11]?
A: 12.5 µg/mL (≈ 45.3 µM)

Q: What about the MIC [4] of the same molecule?
A: ≤ 0.05 µg/mL

Q: What about the MIC [12] of the same molecule?
A: 50 µg/mL (≈ 181 µM)

Q: For `CCCCCc1nnn(CC#CI)n1` [Compound No. 17, 2-(1'-iodopropyn-3'-yl)-5-pentyltetrazole], which MIC [1] is on record?
A: 0.09 µg/mL (≈ 0.296 µM)

Q: What about the MIC [2] of the same molecule?
A: 0.39 µg/mL (≈ 1.28 µM)

Q: What about the MIC [3] of the same molecule?
A: 3.13 µg/mL (≈ 10.3 µM)

Q: And the MIC (Candida albicans GA-24)?
A: 3.13 µg/mL (≈ 10.3 µM)

Q: And the MIC [4]?
A: ≤ 0.05 µg/mL

Q: For `COc1ccc(-c2nnn(CC#CI)n2)cc1` [Compound No. 24, 2-(1'-Iodopropyn-3'-yl)-5-(p-methoxyphenyl)tetrazole], which MIC [1] is on record?
A: 0.09 µg/mL (≈ 0.265 µM)

Q: What about the MIC [2] of the same molecule?
A: 1.56 µg/mL (≈ 4.59 µM)

Q: And the MIC [3]?
A: 50 µg/mL (≈ 147 µM)

Q: What about the MIC (Candida albicans GA-24) of the same molecule?
A: 12.5 µg/mL (≈ 36.8 µM)

Q: What about the MIC [4] of the same molecule?
A: ≤ 0.05 µg/mL

Q: How did the MIC [1] turn out when `Clc1ccc(-c2nnn(CC#CI)n2)cc1` [Compound No. 25, 2-(1'-iodopropyn-3'-yl)-5-(p-chlorophenyl)tetrazole] was run?
A: 0.39 µg/mL (≈ 1.13 µM)

Q: What about the MIC [2] of the same molecule?
A: 0.39 µg/mL (≈ 1.13 µM)

Q: What about the zone of inhibition at 250 µg/mL [13] of the same molecule?
A: 13 mm

Q: What about the zone of inhibition at 500 µg/mL [13] of the same molecule?
A: 13 mm

Q: And the MIC (Candida albicans GA-24)?
A: 1.56 µg/mL (≈ 4.53 µM)

Q: What about the zone of inhibition at 250 µg/mL (Sarcina lutea) of the same molecule?
A: 16 mm

Q: What about the zone of inhibition at 500 µg/mL (Sarcina lutea) of the same molecule?
A: 15 mm

Q: What about the zone of inhibition at 250 µg/mL [14] of the same molecule?
A: 13.2 mm

Q: And the zone of inhibition at 500 µg/mL [14]?
A: 13.7 mm

Q: What about the zone of inhibition at 250 µg/mL (Bacillus subtilis) of the same molecule?
A: 11.2 mm

Q: What about the zone of inhibition at 500 µg/mL (Bacillus subtilis) of the same molecule?
A: 11.1 mm

Q: And the MIC [4]?
A: 0.09 µg/mL (≈ 0.261 µM)

Q: Which results are given for `Clc1ccc(-c2nnnn2CC#CI)cc1` [Compound No. 26, 1-(1'-Iodopropyn-3'-yl)-5-(p-chlorophenyl)tetrazole]?
A: MIC [1]: 0.19 µg/mL (≈ 0.551 µM); MIC [2]: 0.78 µg/mL (≈ 2.26 µM); MIC [3]: 0.78 µg/mL (≈ 2.26 µM); MIC (Candida albicans GA-24): 0.78 µg/mL (≈ 2.26 µM); MIC [4]: < 0.04 µg/mL

Q: Which MIC [1] does the source give for `Clc1cc(Cl)cc(-c2nnn(CC#CI)n2)c1` [Compound No. 30, 2-(1'-Iodopropyn-3'-yl)-5-(3",5"-dichlorophenyl)tetrazole] here?
A: ≤ 0.05 µg/mL

Q: And the MIC [2]?
A: 0.19 µg/mL (≈ 0.501 µM)

Q: And the MIC [3]?
A: 0.78 µg/mL (≈ 2.06 µM)

Q: And the MIC (Candida albicans GA-24)?
A: 0.78 µg/mL (≈ 2.06 µM)

Q: And the MIC [4]?
A: 0.09 µg/mL (≈ 0.237 µM)

Q: How did the MIC [1] turn out when `Cc1ccc(-c2nnn(CC#CI)n2)cc1` [Compound No. 31, 2-(1'-Iodopropyn-3'-yl)-5-(p-methylphenyl)tetrazole] was run?
A: 0.39 µg/mL (≈ 1.2 µM)

Q: What about the MIC [2] of the same molecule?
A: 1.56 µg/mL (≈ 4.81 µM)

Q: What about the zone of inhibition at 250 µg/mL [13] of the same molecule?
A: 11.4 mm

Q: What about the zone of inhibition at 500 µg/mL [13] of the same molecule?
A: 11.6 mm

Q: What about the MIC [3] of the same molecule?
A: 1.56 µg/mL (≈ 4.81 µM)

Q: What about the MIC (Candida albicans GA-24) of the same molecule?
A: 0.78 µg/mL (≈ 2.41 µM)

Q: What about the zone of inhibition at 250 µg/mL (Sarcina lutea) of the same molecule?
A: 12 mm

Q: And the zone of inhibition at 500 µg/mL (Sarcina lutea)?
A: 12 mm

Q: And the zone of inhibition at 250 µg/mL [14]?
A: 11.3 mm

Q: What about the zone of inhibition at 500 µg/mL [14] of the same molecule?
A: 11.4 mm

Q: And the zone of inhibition at 250 µg/mL (Bacillus subtilis)?
A: 9.6 mm

Q: What about the zone of inhibition at 500 µg/mL (Bacillus subtilis) of the same molecule?
A: 9.6 mm

Q: And the MIC [4]?
A: 0.19 µg/mL (≈ 0.586 µM)

Q: `Oc1ccc(-c2nnnn2CC#CI)cc1` [Compound No. 35, 1-(1'-iodopropyn-3'-yl)-5-(p-hydroxyphenyl)tetrazole] was tested. Which MIC [1] did it give?
A: 0.1 µg/mL (≈ 0.307 µM)

Q: What about the MIC [2] of the same molecule?
A: 100 µg/mL (≈ 307 µM)

Q: What about the MIC [3] of the same molecule?
A: 0.39 µg/mL (≈ 1.2 µM)

Q: What about the MIC (Candida albicans GA-24) of the same molecule?
A: 1.56 µg/mL (≈ 4.78 µM)

Q: And the MIC [4]?
A: 0.1 µg/mL (≈ 0.307 µM)
